In the kinase profiling compilation of Christmann-Franck et al. (2016):

Columns and labels:
Experiment in all cases: KINOMEscan competition binding
Conditions in all cases: compound 1.0 µM
ACVRL1 (human) = ACVRL1 (human) (UniProt P37023)
ADCK3 (human) = ADCK3 (human) (UniProt Q8NI60)
CDK16 (human) = CDK16 (human) (UniProt Q00536)
CDK2 (human) = CDK2 (human) (UniProt P24941)
CDK4 CCND3 (human) = CDK4 CCND3 (human) (UniProt P11802+P30281)
CDK5 (human) = CDK5 (human) (UniProt Q00535)
CLK1 (human) = CLK1 (human) (UniProt P49759)
CLK3 (human) = CLK3 (human) (UniProt P49761)
CSNK1E (human) = CSNK1E (human) (UniProt P49674)
CaMK1 (human) = CaMK1 (human) (UniProt Q14012)
DDR2 (human) = DDR2 (human) (UniProt Q16832)
[1] = tested on: EGFR (human), P00533 [G719S]
[2] = tested on: EGFR (human), P00533 [T790M]
EPHA3 (human) = EPHA3 (human) (UniProt P29320)
FGFR4 (human) = FGFR4 (human) (UniProt P22455)
FGR (human) = FGR (human) (UniProt P09769)
FRK (human) = FRK (human) (UniProt P42685)
GRK4 (human) = GRK4 (human) (UniProt P32298)
GRK7 (human) = GRK7 (human) (UniProt Q8WTQ7)
IRAK1 (human) = IRAK1 (human) (UniProt P51617)
MAP2K5 (human) = MAP2K5 (human) (UniProt Q13163)
MAP2K6 (human) = MAP2K6 (human) (UniProt P52564)
MAP4K1 (human) = MAP4K1 (human) (UniProt Q92918)
MAPKAPK2 (human) = MAPKAPK2 (human) (UniProt P49137)
MUSK (human) = MUSK (human) (UniProt O15146)
MYLK3 (human) = MYLK3 (human) (UniProt Q32MK0)
NEK4 (human) = NEK4 (human) (UniProt P51957)
NEK5 (human) = NEK5 (human) (UniProt Q6P3R8)
NUAK1 (human) = NUAK1 (human) (UniProt O60285)
PHKG2 (human) = PHKG2 (human) (UniProt P15735)
[3] = tested on: PIK3CA (human), P42336 [H1047L]
PIM2 (human) = PIM2 (human) (UniProt Q9P1W9)
PIP4K2B (human) = PIP4K2B (human) (UniProt P78356)
PRKAA2 (human) = PRKAA2 (human) (UniProt P54646)
PRKG2 (human) = PRKG2 (human) (UniProt Q13237)
RIPK1 (human) = RIPK1 (human) (UniProt Q13546)
RIPK4 (human) = RIPK4 (human) (UniProt P57078)
STK32B (human) = STK32B (human) (UniProt Q9NY57)
STK32C (human) = STK32C (human) (UniProt Q86UX6)
STK35 (human) = STK35 (human) (UniProt Q8TDR2)
STK39 (human) = STK39 (human) (UniProt Q9UEW8)
TNK2 (human) = TNK2 (human) (UniProt Q07912)
TTK (human) = TTK (human) (UniProt P33981)
Chain of TTK (human) (P33981 whole entry, looked up): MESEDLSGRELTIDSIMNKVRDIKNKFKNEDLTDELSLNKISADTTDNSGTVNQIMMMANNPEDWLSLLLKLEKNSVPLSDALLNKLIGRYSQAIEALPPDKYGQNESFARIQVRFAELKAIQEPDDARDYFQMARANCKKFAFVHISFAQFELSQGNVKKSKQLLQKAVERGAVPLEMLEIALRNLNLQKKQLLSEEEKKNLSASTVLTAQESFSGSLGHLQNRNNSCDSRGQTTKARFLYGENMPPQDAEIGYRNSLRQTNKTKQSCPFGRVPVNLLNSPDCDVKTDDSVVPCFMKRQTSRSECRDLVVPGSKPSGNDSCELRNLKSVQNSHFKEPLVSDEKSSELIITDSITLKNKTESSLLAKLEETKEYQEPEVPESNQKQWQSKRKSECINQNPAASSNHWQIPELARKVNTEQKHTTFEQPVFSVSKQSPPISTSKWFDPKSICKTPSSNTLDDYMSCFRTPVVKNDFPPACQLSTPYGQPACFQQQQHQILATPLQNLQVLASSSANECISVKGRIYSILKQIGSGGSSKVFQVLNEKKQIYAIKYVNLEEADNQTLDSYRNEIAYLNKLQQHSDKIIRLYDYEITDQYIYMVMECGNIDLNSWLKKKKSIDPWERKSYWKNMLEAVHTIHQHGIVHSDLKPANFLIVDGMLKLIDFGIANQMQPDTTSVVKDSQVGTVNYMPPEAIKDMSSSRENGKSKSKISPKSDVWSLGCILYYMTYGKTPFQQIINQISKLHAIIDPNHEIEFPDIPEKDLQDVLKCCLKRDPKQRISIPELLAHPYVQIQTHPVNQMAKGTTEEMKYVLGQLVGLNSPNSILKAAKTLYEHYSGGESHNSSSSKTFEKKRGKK

Chain of DDR2 (human) (Q16832 whole entry, looked up): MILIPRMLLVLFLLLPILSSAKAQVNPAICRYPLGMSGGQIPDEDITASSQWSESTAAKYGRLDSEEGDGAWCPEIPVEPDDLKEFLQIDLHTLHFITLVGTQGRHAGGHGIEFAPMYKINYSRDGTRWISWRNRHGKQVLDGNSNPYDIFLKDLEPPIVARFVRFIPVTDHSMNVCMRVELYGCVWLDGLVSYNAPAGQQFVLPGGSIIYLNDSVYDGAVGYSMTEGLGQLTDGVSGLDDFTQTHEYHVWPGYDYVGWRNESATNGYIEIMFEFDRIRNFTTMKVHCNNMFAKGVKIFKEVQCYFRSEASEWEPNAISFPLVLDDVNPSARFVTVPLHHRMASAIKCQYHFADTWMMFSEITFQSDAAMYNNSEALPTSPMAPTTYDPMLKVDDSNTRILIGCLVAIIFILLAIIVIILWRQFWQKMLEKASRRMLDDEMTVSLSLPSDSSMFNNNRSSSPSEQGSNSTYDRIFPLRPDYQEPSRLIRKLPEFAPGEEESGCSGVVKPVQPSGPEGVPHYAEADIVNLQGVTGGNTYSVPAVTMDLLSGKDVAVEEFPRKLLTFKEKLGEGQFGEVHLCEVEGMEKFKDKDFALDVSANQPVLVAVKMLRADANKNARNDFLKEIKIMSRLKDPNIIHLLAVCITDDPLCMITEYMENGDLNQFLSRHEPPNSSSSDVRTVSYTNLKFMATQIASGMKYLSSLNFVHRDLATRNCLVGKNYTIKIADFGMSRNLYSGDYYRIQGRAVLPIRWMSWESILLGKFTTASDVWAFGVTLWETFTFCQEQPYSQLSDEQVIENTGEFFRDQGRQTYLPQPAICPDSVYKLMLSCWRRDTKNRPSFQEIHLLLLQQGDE
Chain of MUSK (human) (O15146 whole entry, looked up): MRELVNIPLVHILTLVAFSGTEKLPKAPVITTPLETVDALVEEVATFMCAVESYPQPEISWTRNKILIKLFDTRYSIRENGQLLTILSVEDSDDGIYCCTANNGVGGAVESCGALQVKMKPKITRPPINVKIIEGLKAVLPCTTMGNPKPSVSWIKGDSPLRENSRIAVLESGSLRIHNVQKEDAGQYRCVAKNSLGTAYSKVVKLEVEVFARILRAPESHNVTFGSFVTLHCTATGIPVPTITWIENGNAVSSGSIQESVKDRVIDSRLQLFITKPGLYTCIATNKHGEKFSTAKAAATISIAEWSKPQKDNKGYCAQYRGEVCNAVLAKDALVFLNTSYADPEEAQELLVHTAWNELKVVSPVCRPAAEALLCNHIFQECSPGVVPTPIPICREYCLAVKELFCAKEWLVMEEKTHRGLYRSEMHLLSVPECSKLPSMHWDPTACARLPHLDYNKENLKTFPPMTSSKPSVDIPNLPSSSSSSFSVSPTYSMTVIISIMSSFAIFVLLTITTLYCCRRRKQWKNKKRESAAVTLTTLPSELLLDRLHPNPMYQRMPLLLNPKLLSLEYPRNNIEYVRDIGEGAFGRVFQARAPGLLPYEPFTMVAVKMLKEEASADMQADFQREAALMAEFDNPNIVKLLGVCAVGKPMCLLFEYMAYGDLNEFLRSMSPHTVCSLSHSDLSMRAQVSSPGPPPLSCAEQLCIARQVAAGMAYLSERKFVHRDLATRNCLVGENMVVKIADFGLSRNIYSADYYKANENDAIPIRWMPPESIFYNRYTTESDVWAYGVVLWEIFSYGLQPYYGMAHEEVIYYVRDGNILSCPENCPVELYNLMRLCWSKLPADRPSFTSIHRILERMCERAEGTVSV
Chain of MYLK3 (human) (Q32MK0 whole entry, looked up): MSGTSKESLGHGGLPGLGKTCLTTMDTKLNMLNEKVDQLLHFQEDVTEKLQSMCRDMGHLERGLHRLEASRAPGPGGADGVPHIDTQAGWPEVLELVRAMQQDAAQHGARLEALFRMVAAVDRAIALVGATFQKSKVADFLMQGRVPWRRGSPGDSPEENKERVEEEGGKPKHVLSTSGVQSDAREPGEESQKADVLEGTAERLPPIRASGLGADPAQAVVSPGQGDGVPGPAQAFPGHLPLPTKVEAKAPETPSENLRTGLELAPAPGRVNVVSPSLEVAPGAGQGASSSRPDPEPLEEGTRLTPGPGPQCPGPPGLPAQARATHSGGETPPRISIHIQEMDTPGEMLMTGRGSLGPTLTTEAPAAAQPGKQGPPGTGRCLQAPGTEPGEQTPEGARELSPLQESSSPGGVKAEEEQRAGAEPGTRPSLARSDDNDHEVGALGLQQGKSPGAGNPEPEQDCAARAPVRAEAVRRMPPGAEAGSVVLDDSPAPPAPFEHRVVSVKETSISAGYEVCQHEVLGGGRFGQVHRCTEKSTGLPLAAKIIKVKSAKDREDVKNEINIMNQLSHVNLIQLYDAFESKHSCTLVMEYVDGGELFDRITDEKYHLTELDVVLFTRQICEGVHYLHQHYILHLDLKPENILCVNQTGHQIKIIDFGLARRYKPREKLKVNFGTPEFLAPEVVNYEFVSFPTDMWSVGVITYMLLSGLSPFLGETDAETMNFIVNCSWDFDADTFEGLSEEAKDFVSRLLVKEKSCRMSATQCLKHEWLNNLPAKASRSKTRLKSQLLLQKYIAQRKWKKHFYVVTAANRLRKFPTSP
Chain of PRKAA2 (human) (P54646 whole entry, looked up): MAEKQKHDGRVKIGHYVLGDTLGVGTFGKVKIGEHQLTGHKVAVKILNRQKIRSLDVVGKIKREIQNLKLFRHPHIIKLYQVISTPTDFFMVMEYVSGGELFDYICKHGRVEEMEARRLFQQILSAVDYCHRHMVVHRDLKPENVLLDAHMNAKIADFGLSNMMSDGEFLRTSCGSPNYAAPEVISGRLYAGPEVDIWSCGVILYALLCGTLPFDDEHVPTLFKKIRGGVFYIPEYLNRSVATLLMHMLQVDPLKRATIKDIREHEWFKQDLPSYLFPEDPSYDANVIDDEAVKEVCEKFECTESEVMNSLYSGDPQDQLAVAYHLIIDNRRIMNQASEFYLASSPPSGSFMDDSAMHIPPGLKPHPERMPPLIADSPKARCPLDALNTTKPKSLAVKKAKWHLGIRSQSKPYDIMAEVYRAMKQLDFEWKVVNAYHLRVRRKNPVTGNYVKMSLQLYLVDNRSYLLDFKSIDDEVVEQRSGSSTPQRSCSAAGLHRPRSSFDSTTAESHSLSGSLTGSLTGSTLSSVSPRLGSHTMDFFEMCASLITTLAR
Chain of FGFR4 (human) (P22455 whole entry, looked up): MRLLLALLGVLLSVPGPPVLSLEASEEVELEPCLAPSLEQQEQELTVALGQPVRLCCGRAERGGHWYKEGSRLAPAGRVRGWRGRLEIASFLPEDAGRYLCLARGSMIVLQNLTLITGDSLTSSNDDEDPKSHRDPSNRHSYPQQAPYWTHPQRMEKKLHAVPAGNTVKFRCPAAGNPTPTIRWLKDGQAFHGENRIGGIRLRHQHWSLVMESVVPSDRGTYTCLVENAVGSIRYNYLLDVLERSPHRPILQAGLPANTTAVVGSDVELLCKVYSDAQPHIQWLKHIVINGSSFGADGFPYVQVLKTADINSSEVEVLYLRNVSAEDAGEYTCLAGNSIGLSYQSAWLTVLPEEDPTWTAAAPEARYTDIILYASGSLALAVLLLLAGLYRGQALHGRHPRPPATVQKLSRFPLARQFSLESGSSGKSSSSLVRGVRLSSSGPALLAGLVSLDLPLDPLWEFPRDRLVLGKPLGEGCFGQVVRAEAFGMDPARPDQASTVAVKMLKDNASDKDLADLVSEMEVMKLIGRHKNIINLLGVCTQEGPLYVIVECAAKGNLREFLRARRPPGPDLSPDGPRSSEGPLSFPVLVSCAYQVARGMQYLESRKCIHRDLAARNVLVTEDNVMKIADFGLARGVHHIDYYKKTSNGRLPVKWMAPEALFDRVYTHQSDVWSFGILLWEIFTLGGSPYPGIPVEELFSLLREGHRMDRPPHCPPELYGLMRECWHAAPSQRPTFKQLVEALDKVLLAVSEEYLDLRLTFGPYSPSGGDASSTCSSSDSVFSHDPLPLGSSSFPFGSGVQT
Chain of PIM2 (human) (Q9P1W9 whole entry, looked up): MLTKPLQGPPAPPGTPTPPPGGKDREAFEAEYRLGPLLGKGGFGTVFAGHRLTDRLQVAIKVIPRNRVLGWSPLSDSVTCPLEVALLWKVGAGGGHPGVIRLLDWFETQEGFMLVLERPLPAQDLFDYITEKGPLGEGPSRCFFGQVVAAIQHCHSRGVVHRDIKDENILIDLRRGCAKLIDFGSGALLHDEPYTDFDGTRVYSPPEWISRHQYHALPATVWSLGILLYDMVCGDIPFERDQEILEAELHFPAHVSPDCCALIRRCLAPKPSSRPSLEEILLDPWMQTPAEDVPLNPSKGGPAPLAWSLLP

`COCCNCCCn1c(C(=O)CF)c(-c2ccc(C)cc2)c2c(N)ncnc21` was tested, and the kinase still bound, per cent of control (ACVRL1 (human)) was 100%, the kinase still bound, per cent of control (ADCK3 (human)) was 100% and the kinase still bound, per cent of control (CDK16 (human)) was 100%. It also gave a kinase still bound, per cent of control (CDK2 (human)) of 83%, a kinase still bound, per cent of control (CDK4 CCND3 (human)) of 100% and a kinase still bound, per cent of control (CDK5 (human)) of 95%. It also gave a kinase still bound, per cent of control (CLK1 (human)) of 87%, a kinase still bound, per cent of control (CLK3 (human)) of 79% and a kinase still bound, per cent of control (CSNK1E (human)) of 87%. It also gave a kinase still bound, per cent of control (CaMK1 (human)) of 100%, a kinase still bound, per cent of control (DDR2 (human)) of 99% and a kinase still bound, per cent of control [1] of 90%. The kinase still bound, per cent of control [2] was 100%, the kinase still bound, per cent of control (EPHA3 (human)) was 88% and the kinase still bound, per cent of control (FGFR4 (human)) was 100%. For the same compound, the kinase still bound, per cent of control (FGR (human)) was 93%, the kinase still bound, per cent of control (FRK (human)) was 81% and the kinase still bound, per cent of control (GRK4 (human)) was 85%. For the same compound, the kinase still bound, per cent of control (GRK7 (human)) was 100%, the kinase still bound, per cent of control (IRAK1 (human)) was 93% and the kinase still bound, per cent of control (MAP2K5 (human)) was 46%. The kinase still bound, per cent of control (MAP2K6 (human)) was 97%, the kinase still bound, per cent of control (MAP4K1 (human)) was 86% and the kinase still bound, per cent of control (MAPKAPK2 (human)) was 97%. It also gave a kinase still bound, per cent of control (MUSK (human)) of 100%, a kinase still bound, per cent of control (MYLK3 (human)) of 96% and a kinase still bound, per cent of control (NEK4 (human)) of 100%. For the same compound, the kinase still bound, per cent of control (NEK5 (human)) was 100%, the kinase still bound, per cent of control (NUAK1 (human)) was 98% and the kinase still bound, per cent of control (PHKG2 (human)) was 100%. For the same compound, the kinase still bound, per cent of control [3] was 100%, the kinase still bound, per cent of control (PIM2 (human)) was 99% and the kinase still bound, per cent of control (PIP4K2B (human)) was 94%. The kinase still bound, per cent of control (PRKAA2 (human)) was 75%, the kinase still bound, per cent of control (PRKG2 (human)) was 98% and the kinase still bound, per cent of control (RIPK1 (human)) was 100%. For the same compound, the kinase still bound, per cent of control (RIPK4 (human)) was 100%, the kinase still bound, per cent of control (STK32B (human)) was 98% and the kinase still bound, per cent of control (STK32C (human)) was 100%. The kinase still bound, per cent of control (STK35 (human)) was 99%, the kinase still bound, per cent of control (STK39 (human)) was 100% and the kinase still bound, per cent of control (TNK2 (human)) was 100%. It also gave a kinase still bound, per cent of control (TTK (human)) of 95%.
